In US20030225007A1, “Sulfonamide derivatives of 3-substituted imidazol[1,2-d]-1,2,4-thiadiazoles and 3-substituted-[1,2,4] thiadiazolo[4,5-a] benzimidazole as inhibitors of fibrin cross-linking and transglutaminases” (Apotex Inc., priority 2002, published 2003):
Where two headings read alike, the source gives them in different places.

Key:
[1] = molecular target: T1, Factor XIIIa (activated FXIII) (Homo sapiens, UniProt P00488); experiment: Inactivation of purified Factor XIIIa (monodansylcadaverine incorporation into dimethylcasein, fluorescence); type: biochemical; conditions: for kinact/KI: purified Factor XIIIa, method of Kitz and Wilson, read-out: Second order rate constant for inactivation
T1 construct: purchased Enzyme Research Laboratories, Ltd
T1 sequence (P00488 39-732 limits assumed): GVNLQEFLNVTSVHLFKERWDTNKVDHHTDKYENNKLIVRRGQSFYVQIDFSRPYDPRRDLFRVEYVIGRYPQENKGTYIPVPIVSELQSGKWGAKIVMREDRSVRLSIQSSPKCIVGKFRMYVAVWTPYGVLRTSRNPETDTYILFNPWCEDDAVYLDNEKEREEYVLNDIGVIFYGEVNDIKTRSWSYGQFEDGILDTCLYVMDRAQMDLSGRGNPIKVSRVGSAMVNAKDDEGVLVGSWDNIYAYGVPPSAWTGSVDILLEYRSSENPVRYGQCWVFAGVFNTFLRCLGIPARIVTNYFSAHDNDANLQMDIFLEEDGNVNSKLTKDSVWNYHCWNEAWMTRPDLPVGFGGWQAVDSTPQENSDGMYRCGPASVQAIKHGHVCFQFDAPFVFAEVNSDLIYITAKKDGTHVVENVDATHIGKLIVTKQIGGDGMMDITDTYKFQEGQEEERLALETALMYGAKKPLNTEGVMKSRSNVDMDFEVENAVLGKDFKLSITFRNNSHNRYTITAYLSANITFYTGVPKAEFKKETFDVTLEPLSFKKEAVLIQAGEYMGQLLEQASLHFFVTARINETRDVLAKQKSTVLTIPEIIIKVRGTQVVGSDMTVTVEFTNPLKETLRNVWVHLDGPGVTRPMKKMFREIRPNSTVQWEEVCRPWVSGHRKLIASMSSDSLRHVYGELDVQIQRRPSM
In short: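 Read-out: fluorescence rise (360/500 nm) as 20 μM monodansylcadaverine is built into dimethylcasein at pH 8.0, 10 mM CaCl2. This measures activity left after a 5-min, 37° C., substrate-free exposure of thrombin-activated FXIII to inhibitor. IC50 means 50% inactivation under those conditions; rate constants by Kitz-Wilson method.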

[2] = test system: platelet-depleted and platelet-rich human plasma clots; experiment: Acceleration of fibrinolysis of platelet-depleted and platelet-rich plasma clots (t-PA lysis); type: biochemical; conditions: platelet-depleted and platelet-rich human plasma clots made with varying inhibitor concentrations; lysis with 300 IU/mL t-PA; FIG. 3
Experimental: Platelet rich (platelet count: 150,000-300,000 mm^−3) or platelet-depleted citrated human plasma was prepared from at least three donors. Plasma (0.3 mL), containing 2-4 μg/mL of ^125I-labeled fibrinogen (specific activity approx. 200 μCi/mg, at least 85% clotability, Amersham Pharmacia Biotech UK Ltd.), was clotted by the addition of CaCl2 (6.4 μL) to a final concentration of 50 mM and thrombin (6.2 μL) to a final concentration of 5 units/mL. Solutions of Factor XIIIa inactivators in DMSO were added just prior to the addition of thrombin and CaCl2. In some cases the inactivator was dissolved and added to plasma in water. To these samples, DMSO (3.2 μL) was mixed in to make 1% final concentration. Conversely, water (3.2 μL) was added to clots to which inactivator was added in DMSO. […] The progress of the fibrinolysis was followed by quantitating the amount of radioactivity in a 20 μL aliquot of the lysis buffer at various lysis times. To measure the total amount of radioactivity in the clots taken for lysis, 0.6 mg bovine trypsin was added to each sample at the end of the lysis and the solutions were incubated for 4 hours at 37° C., or until the digestion was complete. An aliquot (20 μL) of the resulting solution was counted in the liquid scintillation counter. Per cent of fibrinolysis was then calculated with a correction for sub-sampling. […]

[3] = purified activated FXIII, 50% enzyme inactivation after 5-min incubation with inhibitor at 37° C. in the absence of substrate, read-out: FXIIIa (IC50 in μM)
[4] = values without asterisk, purified FXIIIa, 5-min incubation, read-out: FXIIIa IC50 determined by method in Example 16

Compound | kinact/KI [1] | IC50 [1, 3] | IC50 [1, 4] | fibrinolysis of plasma clots [2]
O=S(=O)(NCCCCCCNc1nsc2nccn12)c1cccc2ccccc12 [1-naphthyl, N-[6-(imidazo[1,2-d][1,2,4]thiadiazol-3-ylamino)hexyl]naphthalene-1-sulfonamide] | 3300 M⁻¹ s⁻¹ | 0.52 µM | 0.52 µM | –
O=S(=O)(Cc1ccccc1)NCCCCCCNc1nsc2nccn12 [2 / CH2Ph, N-[6-(imidazo[1,2-d][1,2,4]thiadiazol-3-ylamino)hexyl]-1-phenylmethanesulfonamide] | – | – | 7.8 µM | –
O=S(=O)(NCCCCCCNc1nsc2nccn12)c1ccc(F)cc1F [2,4-diF-Ph, 2,4-difluoro-N-[6-(imidazo[1,2-d][1,2,4]thiadiazol-3-ylamino)hexyl]benzenesulfonamide] | – | 1.4 µM | 1.4 µM | –
O=S(=O)(NCCCCCCNc1nsc2nccn12)c1ccc(OC(F)(F)F)cc1 [4-OCF3-Ph, N-[6-(imidazo[1,2-d][1,2,4]thiadiazol-3-ylamino)hexyl]-4-trifluoromethoxybenzenesulfonamide] | – | – | 1.6 µM | –
O=C(O)CN(CCCCCCNS(=O)(=O)c1ccccc1[N+](=O)[O-])c1nsc2nccn12 [H / CH2CO2H / 2-NO2-Ph, N-imidazo[1,2-d][1,2,4]thiadiazol-3-yl-N-(6-{[(2-nitrophenyl)sulfonyl]amino}hexyl)glycine] | 4500 M⁻¹ s⁻¹ | 0.62 µM | 0.62 µM | acceleration of fibrinolysis
